Measurements reported in US7049321B2, “Methods and pharmaceutical compositions for treatment of central and peripheral nervous system disorders and compounds useful therefor” (Israel Institute for Biological Research, priority 2002, dated 2006).
Entries after “also recorded” stand apart in the source; their conditions may differ. Read-outs that look alike come from different tables or passages of the source.

What was measured:
muscarinic receptor = experiment: [3H]OXO-M competition binding; settings: rat cortex
Source text: The ability of a test compound to displace [^3H]OXO-M binding provides a measure for the affinity of the test compound to the receptor agonist binding site.

Serotonin, 5HT3 = Serotonin, 5HT3 (Homo sapiens, UniProt P46098); experiment: Serotonin 5HT3 binding; settings: at 10^−4 M
GSK-3β = GSK-3β activity in rat hippocampal neurons; assay type: cell-based
Procedure: (§1) This study was performed in rat hippocampal primary cell cultures using the methods described by Garrido J L et al. (FASEB J 2002; 16:1982).

cyclin D1 = experiment: Cyclin D1 expression in rat hippocampal neurons; assay type: cell-based; settings: against Aβ (5 μM)-induced decrease
Procedure: as §1

[1] = rat, in vivo, po
Procedure: (§3) This calculation was based on the brain weight (2 gr) vs. total plasma volume (14 ml).

[2] = Chronic oral toxicity up to 13 weeks, dog
Aging microcebes = experiment: Effects in aging microcebes; assay type: in vivo; settings: chronic treatment for 18 months
Source text: Aging microcebes show similar cognitive deficits and cerebral lesions to those observed in aging humans and in AD patients. Thus this is a good animal model for AD, mimicing the three major hallmarks in AD {plaques (Aβ), paired helical filaments (hyperphophorylated and aggregated τ) and cognitive dysfunction}. This model may also be used to mimic MCI conducive to AD

ischemic rats = experiment: Working memory (MWM) in ischemic rats; assay type: in vivo, Sprague Dawley rats; settings: 0.5 mg/kg, po, chronic
Procedure: Transient ischemia in rats was induced by a modification of the ischemia model (Voll et et al, Stroke, 20: 1700–1706, 1989). This was done by a bilateral carotid artery occlusion in Sprague Dawley rats: (42 male, 3 months old, weighing 270–340 g) combined with reduction in blood pressure induced by sodium nitropruside. Ischemia was induced in 21 rats whereas the other 21 rats served as sham controls. Under pentobarbital anasthesia (30 mg/kg, ip), sodium nitropruside 4.8 mg/kg/hr) was infused through a cannula implanted in the tail vein, for a period of 25 min. Five min after the initiation of the infusion, at the time when mean blood pressure was maintained at 30–60 mmHg (intial levels ˜110 mm Hg) both carotid arteries were clamped for 20 min. Immediately afterwards 1.8 mEq sodium bicarbonate solution was administerd ip in order to minimize systemic acidosis. The sham operated rats were anesthetized as the ischemic rats and were infused with saline. […] In rats subjected to ischemia, a mortality of about 30% was recorded within 24 hr after surgery. […]
The ratio of escape latency (REL) and the ratio of path length (RPL) were calculated by the ratio of block no 2/block no 1 for each parameter. […] REL and RPL were analyzed by a 3-way ANOVA (2×2×3), with one repeated variable (weeks) and two non-repeated variables (Operation-ischemia/sham-operated and Treatment AF150(S)/DDW).

[3] = Ex vivo brain penetration in mice (GC and binding); settings: for half-life: mice brain
Procedure: as §3

M5 receptor = biological target: T1, M5 receptor (Homo sapiens, UniProt P08912); experiment: PI hydrolysis in cells transfected with human M5; assay type: cell-based
T1 construct: expressed in transfected cells

M3 mAChR = biological target: T2, M3 mAChR (Homo sapiens, UniProt P20309); experiment: Arachidonic acid (AA) release, M3; assay type: cell-based
T2 construct: expressed in transfected cells

M5 mAChR = biological target: T3, M5 mAChR (Homo sapiens, UniProt P08912); experiment: Arachidonic acid (AA) release, M5; assay type: cell-based
T3 construct: expressed in transfected cells

human M1 = biological target: T4, human M1 (Homo sapiens, UniProt P11229); experiment: Binding study, M1 (human); settings: 10 μm
T4 sequence (P11229 1-460): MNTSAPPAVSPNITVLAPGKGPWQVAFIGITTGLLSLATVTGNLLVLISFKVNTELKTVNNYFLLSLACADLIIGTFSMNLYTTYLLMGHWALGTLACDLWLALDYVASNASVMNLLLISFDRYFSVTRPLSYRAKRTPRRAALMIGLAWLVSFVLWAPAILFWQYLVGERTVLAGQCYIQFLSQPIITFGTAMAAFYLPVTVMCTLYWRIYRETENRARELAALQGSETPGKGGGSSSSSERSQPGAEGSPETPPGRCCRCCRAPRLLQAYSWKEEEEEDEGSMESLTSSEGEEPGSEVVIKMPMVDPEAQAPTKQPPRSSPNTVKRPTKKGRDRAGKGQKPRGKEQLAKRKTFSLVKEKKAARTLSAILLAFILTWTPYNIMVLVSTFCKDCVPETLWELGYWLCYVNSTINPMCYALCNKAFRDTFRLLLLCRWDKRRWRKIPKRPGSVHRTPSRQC

CYP2C9 = CYP2C9 (Homo sapiens, UniProt P11712); experiment: Cytochrome P450 inhibition, CYP2C9; assay type: in vitro ADME; settings: up to 10 μM
Procedure: (§2) Cytochrome P450 activity can be an indicator for potential drug-drug interactions. AF292 was evaluated in a microtiter plate assay for P450 inhibition.

CYP2C19 = CYP2C19 (Homo sapiens, UniProt P33261); experiment: Cytochrome P450 inhibition, CYP2C19; assay type: in vitro ADME; settings: up to 10 μM
Procedure: as §2

CPY2D6 = CPY2D6 (Homo sapiens, UniProt P10635); experiment: Cytochrome P450 inhibition, CYP2D6; assay type: in vitro ADME; settings: up to 10 μM
Procedure: as §2

T2 sequence (P20309 whole entry): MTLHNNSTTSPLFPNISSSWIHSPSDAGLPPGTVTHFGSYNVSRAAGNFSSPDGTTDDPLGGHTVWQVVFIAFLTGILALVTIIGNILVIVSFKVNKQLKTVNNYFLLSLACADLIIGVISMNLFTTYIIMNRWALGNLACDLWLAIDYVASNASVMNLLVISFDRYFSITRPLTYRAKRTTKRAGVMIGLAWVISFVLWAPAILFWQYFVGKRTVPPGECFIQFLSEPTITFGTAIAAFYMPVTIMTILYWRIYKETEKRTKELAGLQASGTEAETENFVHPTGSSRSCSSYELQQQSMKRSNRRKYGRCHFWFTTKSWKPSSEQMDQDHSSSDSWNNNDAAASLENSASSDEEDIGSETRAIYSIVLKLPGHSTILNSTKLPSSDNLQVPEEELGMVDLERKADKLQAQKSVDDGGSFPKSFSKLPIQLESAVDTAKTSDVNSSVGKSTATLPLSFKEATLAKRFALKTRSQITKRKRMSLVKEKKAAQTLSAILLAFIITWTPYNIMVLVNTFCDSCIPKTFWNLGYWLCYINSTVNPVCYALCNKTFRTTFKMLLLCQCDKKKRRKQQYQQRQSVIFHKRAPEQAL
T3 sequence (P08912 whole entry): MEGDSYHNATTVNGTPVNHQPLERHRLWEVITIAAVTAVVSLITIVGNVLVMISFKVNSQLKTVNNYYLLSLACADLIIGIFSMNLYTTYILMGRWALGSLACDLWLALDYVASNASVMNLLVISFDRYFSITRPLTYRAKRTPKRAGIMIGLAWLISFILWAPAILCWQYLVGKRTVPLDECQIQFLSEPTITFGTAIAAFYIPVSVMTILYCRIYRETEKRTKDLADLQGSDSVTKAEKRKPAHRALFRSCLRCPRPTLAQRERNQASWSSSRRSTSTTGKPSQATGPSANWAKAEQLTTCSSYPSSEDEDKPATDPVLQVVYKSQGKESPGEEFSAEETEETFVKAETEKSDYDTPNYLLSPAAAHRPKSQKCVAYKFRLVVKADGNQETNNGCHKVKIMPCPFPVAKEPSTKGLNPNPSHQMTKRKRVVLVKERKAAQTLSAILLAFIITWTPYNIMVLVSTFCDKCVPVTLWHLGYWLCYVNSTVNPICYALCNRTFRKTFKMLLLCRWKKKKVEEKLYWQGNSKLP
T1 sequence (P08912 whole entry): as above
Chain of CPY2D6 (P10635 whole entry): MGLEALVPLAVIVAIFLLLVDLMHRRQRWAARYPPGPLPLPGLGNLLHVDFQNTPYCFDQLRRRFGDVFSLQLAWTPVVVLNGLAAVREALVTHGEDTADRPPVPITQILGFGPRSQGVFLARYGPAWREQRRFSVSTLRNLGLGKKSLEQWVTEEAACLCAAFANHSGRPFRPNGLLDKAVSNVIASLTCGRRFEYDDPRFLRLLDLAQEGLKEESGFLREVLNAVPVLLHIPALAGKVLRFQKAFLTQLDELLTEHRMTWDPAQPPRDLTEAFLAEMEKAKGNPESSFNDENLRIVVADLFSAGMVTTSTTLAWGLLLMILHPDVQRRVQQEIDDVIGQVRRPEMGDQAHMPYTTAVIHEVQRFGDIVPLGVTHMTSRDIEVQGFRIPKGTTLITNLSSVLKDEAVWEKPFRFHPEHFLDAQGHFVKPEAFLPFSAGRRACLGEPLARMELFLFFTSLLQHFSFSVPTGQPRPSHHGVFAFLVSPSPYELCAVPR
Chain of CYP2C19 (P33261 whole entry): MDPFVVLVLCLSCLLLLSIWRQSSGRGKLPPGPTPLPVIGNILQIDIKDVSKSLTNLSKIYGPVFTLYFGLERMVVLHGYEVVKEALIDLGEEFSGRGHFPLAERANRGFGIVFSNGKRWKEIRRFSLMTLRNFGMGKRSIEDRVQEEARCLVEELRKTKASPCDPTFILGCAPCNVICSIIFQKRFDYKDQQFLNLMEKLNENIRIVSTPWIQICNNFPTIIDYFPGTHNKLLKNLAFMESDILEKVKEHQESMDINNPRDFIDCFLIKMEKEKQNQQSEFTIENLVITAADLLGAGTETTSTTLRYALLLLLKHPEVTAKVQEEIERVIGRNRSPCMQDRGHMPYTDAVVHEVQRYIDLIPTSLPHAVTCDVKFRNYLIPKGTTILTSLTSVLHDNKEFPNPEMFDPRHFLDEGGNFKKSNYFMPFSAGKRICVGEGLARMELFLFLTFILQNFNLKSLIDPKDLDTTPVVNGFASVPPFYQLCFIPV
Chain of CYP2C9 (P11712 whole entry): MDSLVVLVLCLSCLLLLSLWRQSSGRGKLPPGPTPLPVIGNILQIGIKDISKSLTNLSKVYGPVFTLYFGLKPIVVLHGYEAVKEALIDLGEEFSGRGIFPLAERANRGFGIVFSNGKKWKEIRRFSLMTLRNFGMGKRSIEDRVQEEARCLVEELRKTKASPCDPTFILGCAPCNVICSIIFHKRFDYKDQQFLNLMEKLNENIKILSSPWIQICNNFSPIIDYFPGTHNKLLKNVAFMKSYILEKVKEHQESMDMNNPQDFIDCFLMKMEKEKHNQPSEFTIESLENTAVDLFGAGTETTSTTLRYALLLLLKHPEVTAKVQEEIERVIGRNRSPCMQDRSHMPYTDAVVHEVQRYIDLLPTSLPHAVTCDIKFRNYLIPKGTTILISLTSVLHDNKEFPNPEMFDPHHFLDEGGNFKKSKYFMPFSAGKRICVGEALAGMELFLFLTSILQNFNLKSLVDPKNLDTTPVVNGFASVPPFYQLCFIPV
Chain of Serotonin, 5HT3 (P46098 24-478): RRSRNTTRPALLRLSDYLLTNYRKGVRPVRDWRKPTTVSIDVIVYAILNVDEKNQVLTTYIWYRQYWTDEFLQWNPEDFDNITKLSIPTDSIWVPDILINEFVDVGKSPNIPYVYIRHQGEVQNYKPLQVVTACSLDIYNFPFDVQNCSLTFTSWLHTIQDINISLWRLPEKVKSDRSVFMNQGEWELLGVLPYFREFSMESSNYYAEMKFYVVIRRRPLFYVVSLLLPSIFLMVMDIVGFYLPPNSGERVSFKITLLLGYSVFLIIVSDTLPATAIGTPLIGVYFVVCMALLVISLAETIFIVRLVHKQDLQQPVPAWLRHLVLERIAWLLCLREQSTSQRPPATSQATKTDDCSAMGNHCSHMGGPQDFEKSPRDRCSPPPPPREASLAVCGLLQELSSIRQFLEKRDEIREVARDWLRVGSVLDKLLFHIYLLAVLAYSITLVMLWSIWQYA

CC[C@@H]1SC2(CCN(C)CC2)NC1=O [AF267B, (S)-2-ethyl-8-methyl-1-thia-4,8-diaza-spiro[4.5]decan-3-one]
Ki (muscarinic receptor): 1620 ± 340 nM | inhibition at 100 µM (Serotonin, 5HT3): 51.3% | GSK-3β activity vs. control in presence of Aβ fibrils (GSK-3β; 10 μM, Aβ fibrils (10 μM) alone 370%): 150% | Decrease of GSK-3β activity (GSK-3β; 100 μm): 60% | cyclin D1, increase vs. control (cyclin D1): 50% | % of the compound found in the brain (Cmax brain/Cmax plasma) ([1]; female): 16% | % of the compound found in the brain (Cmax brain/Cmax plasma) ([1]; male): 25% | NOAEL ([2]; beagle, dog, in vivo, po): 6 to 9 mg/kg/day | Dose at which effects are seen ([2]; dog): > 9 mg/kg | ECG changes ([2]; up to 13 weeks oral): no changes in the ECG

CC1=NCC2(CCN(C)CC2)S1 [AF150(S), 2,8-Dimethyl-1-thia-3,8-diaza-spiro[4.5]dec-2-ene]
Astrogliosis and inflammation (Aging microcebes): decreased astrogliosis and inflammation | Cognitive and behavioral impairments (Aging microcebes): improved the cognitive and behavioral impairments | Hyperphosphorylated τ, aggregated τ neurons, paired helical filaments (Aging microcebes): decreased hyperphosphorylated τ proteins | Working memory performance (REL and RPL) (ischemic rats): significantly improved working memory performance | brain penetration time ([3]; iv): 1 min | MRT ([3]; mouse, in vivo, 100 μmole/kg): 50 min | half-life ([3]; mouse, in vivo, iv, T1/2, first phase): 21 min | half-life ([3]; mouse, in vivo, iv, T1/2, second phase): 53 min

CC[C@@H]1SC2(CCNCC2)NC1=O [AF292, (S)-2-Ethyl-1-thia-4,8-diaza-spiro[4.5]decan-3-one]
PI turnover, M5, agonist activity (M5 receptor): No activity; also recorded: PI, AA: M5 mAChR - no effect as agonist | AA release, M3 mAChR, agonist activity (M3 mAChR): inactive as an agonist; also recorded: PI., AA: M3 mAChR: Not active as agonist | AA release, M5 mAChR, agonist activity (M5 mAChR): inactive as an agonist; also recorded: PI, AA: M5 mAChR - no effect as agonist | Binding, % (human M1): 55% | Inhibition of CYP2C9 (CYP2C9): did not induce significant inhibition | Inhibition of CYP2C19 (CYP2C19): did not induce significant inhibition | Inhibition of CPY2D6 (CPY2D6): did not induce significant inhibition
